In US6479079B1, “Anticalcification treatments for fixed biomaterials” (Sulzer Carbomedics Inc., priority 1999, dated 2002):

Key:
porcine wall tissue = assay: Calcium and phosphorus content after subcutaneous implantation in rats (Example 2); type: in vivo, Sprague-Dawley rats; conditions: 60 days of implantation
Method: (§1) In a sterile hood, pieces of glutaraldehyde-fixed bovine pericardium tissue (Mitroflow Inc.; Richmond, British Columbia, Canada) porcine cusp tissue (Labcor; Belo Horizonte, Brazil) and porcine wall tissue (Labcor Inc.) were transferred into sterile tubes containing 1,2-octanediol solutions (5% […] (Aldrich Chemical), 40% ethanol and 55% 10 mM HEPES buffer). The tubes were transferred to a 37° C. incubator and maintained at 37° C. with gentle agitation for about 16 hours. After the treatment, the samples were transferred to solutions comprising 22% ethanol in 10 mM HEPES and stored for 14 days at 4° C. The final tissue to volume ratio for all treatments was approximately 27 ml/g.
(§2) For N-methyl pyrolidinone (NMP) treatments, pieces of glutaraldehyde-fixed bovine pericardium tissue (Mitroflow Inc.), porcine cusp tissue (Labcor Inc.) and porcine wall tissue (Labcor Inc.) were transferred into sterile tubes containing NMP. The tubes were incubated at room temperature for about 16 hours with occasional manual agitation. After the treatment, the tissue samples were transferred to 22% HEPES-buffered ethanol solutions and stored for 14 days at 4° C.
(§3) Samples treated with the 1,2-octanediol solutions and with NMP, as well as untreated samples of each tissue type, were provided to Charles Rivers Laboratories (Wilmington, Mass.) for implantation into rats. Seven rats per treatment group were analyzed. Prior to implantation, the tissue samples were rinsed for 3 minutes×3 in sterile PBS, accompanied by gentle agitation. The samples were implanted subcutaneously approximately 1 cm from the abdominal midline in 3 week old Sprague-Dawley rats and retrieved after 60 days of implantation. Unimplanted samples (one per tissue type per treatment) were used as unimplanted controls. After retrieval, the samples were analyzed for their calcium and phosphorus contents using a standard ICP methodology.

porcine cusp tissue = assay: as above; type: in vivo, Sprague-Dawley rats; conditions: 60 days of implantation
Method: as §1, §2, §3

[1] = tested on: glutaraldehyde-fixed bovine pericardium tissue; assay: Calcium and phosphorus content after subcutaneous implantation in rats (Examples 2 and 3); type: in vivo, Sprague-Dawley rats; conditions: for Calcuim / Phosphorus: Bovine Pericardium, 60 days of implantation
Method: as §1, §2, §3
In a sterile hood, pieces of glutaraldehyde-fixed bovine pericardium tissue (Mitroflow Inc.) were transferred into sterile tubes containing a 45% solution of HEPES-buffered ethanol (45% ethanol, 55% 10 mM HEPES buffer). The tubes were transferred to a 37° C. incubator and maintained at 37° C. with gentle agitation for about 16 hours. After the treatment, the samples were transferred to fresh solution of 45% HEPES-buffered ethanol and stored for 14 days at room temperature (˜25° C.). The final tissue to volume ratio for all treatments was approximately 27 ml /g.
as §3, with “45% ethanol solution,” for “1,2-octanediol solutions and with NMP,”, “by ICP.” for “using a standard ICP methodology.”

[2] = tested on: glutaraldehyde fixed bovine pericardium; assay: Calcification after subcutaneous implantation in rats (Example 1); type: in vivo, Sprague-Dawley rats; conditions: alcohol treatment 24 hrs, retrieved after 60 days
Method: Bovine pericardium was obtained fresh from the abattoir, trimmed to remove excess fat, and stored in a high osmolarity solution until use. Prior to fixation, the tissue was rinsed thoroughly in phosphate buffered saline (PBS) having a pH of 7.3-7.4. A 0.25% solution of glutaraldehyde was prepared by adding 2.5 ml of a 50% glutaraldehyde solution (Aldrich Chemical) to 500 ml using PBS. Fifteen 1 cm×1 cm samples of bovine pericardium tissue were added to the glutaraldehyde solution and the tube was stored at room temperature for 7 days.
In a sterile hood, glutaraldehyde fixed bovine pericardium pieces were washed with sterile PBS (3 washes, 10 minutes each). The samples were then immersed in a sterile filtered solution of 40% ethanol, 5% octanol, 55% water and treated for 24 hours at room temperature. The tissue was then washed with sterile PBS (3 washes, 10 minutes each), and in sterile filtered 45% ethanol in PBS for about 30 minutes. […]
The calcium content of the retrieved samples was determined by hydrolyzing the samples under acidic conditions and analyzing the digested samples using standard inductively coupled plasma (ICP) emission spectrophotometry. […] The resulting digested sample was diluted with water and analyzed using an ICP spectrophotometer (Varian Inc.; Liberty 100/200 ICP-OCS).

[3] = Shrinkage temperature by differential scanning calorimetric analysis; type: physicochemical, bovine
[4] = treated at 37° C. about 16 hours (Example 3)

effect on shrinkage temperature compared with untreated tissue [3] | Shrink Temperature ([3]; glutaraldehyde 0.25% about 7 days, then post-fixation treatment) [°C] | Compound | Calcuim (porcine wall tissue) [μg/mg tissue] | Phosphorus (porcine wall tissue) [μg/mg tissue] | Calcuim (porcine cusp tissue) [μg/mg tissue] | Phosphorus (porcine cusp tissue) [μg/mg tissue] | Calcuim [1] [μg/mg tissue] | Phosphorus [1] [μg/mg tissue] | Calcium ([2]; glutaraldehyde 0.25%, 14 days (45% EtOH) or 7 days (octanol), ICP) [μg/mg dry tissue] | Average von Kossa Grading ([2]; graded from 0 (none) to 5 (severe)) | Calcuim [1, 4] [μg/mg tissue] | Phosphorus [1, 4] [μg/mg tissue] | calcium and phosphorus levels compared with no anticalcification treatment ([1]; Example 3) | calcium and phosphorus levels of explanted tissues ([1]; all tissue types, most pronounced with bovine pericardium)
 |  | CCCCCCC(O)CO (centres unmarked) [1,2-octanediol] | 106.4 | 53.0 | 44.1 | 21.9 | 3.4 | 0 |  |  |  |  |  | 
 |  | CCO [45% EtOH, ethanol] |  |  |  |  |  |  | 168 | 5 | 3.4 | 0.0 | significant reduction | 
no significant effect | 85.6 | CN1CCCC1=O [NMP, N-methyl pyrolidinone] | 111.9 | 55.2 | 14.7 | 7.9 | 8.0 | 3.4 |  |  |  |  |  | significantly reduced
